In article PMC6447871, “Design, Synthesis, Molecular Modeling, In Silico ADME Studies and Anti-HIV-1 Assay of New Diazocoumarin Derivatives” (Iranian Journal of Pharmaceutical Research : IJPR, 2018):

Assays:
HIV-1 [1] = assay: microbe, parasite or virus in culture; format: cell-based; conditions: Human immunodeficiency virus 1, NL43, M-HeLa, 72 h, read-out: (%) Inhibition rate of p24 expression
Protocol: (§1) Anti-HIV-1 activity of synthesized compounds was evaluated in single cycle replication assay which was evaluated in our laboratory and reported previously ([32]-[35]). In this assay, the single-cycle replicable HIV NL4-3 virions (200 ng p24) were inoculated concurrently with compounds in different concentrations to the Hela cells. The inhibition rate (%) of p24 expression was measured by capture ELISA (Biomerieux, France) 72 hours after inoculation. Percentage inhibition of p24 expression in treated culture was calculated as inhibition rate of p24 (%). The XTT (sodium3-[1(phenylaminocarbonyl)-3,4-tetrazolium]-bis(4-methoxy-6-nitro)benzene sulfonic acid) proliferation assay was conducted to evaluate the cellular toxicity according to kit instructions ([36], [37]). Cytotoxicity test was performed exactly after the p24 assay.
(§2) Compounds 11a-h were assayed for anti-HIV-1 activity in single cycle replication method which reflects only one round of infection. Anti-HIV activity of compounds was measured as inhibition rate (%) of p24 expression in Hela cells cultures. Azidothymidine (AZT) was the positive control in the test. The cytotoxic properties were measured in the same cells by XTT proliferation assay and reported as percentage of cell viability.

in vitro = conditions: human
Protocol: as §1, §2

HIV-1 [2] = tested on: HIV-1; parameters: method as in earlier work; conditions: read-out: EC50 (anti-HIV-1 activity); cited from earlier work
[3] = parameters: method as in earlier work; conditions: read-out: CC50 (cytotoxicity); cited from earlier work

Row | SMILES | inhibition at 100 µM (HIV-1 [1]) | viability at 72 h, 100 µM (in vitro) | EC50 (HIV-1 [2]) | CC50 [3] | melting point
1 | Cc1cn([C@H]2C[C@H](N=[N+]=[N-])[C@@H](CO)O2)c(=O)[nH]c1=O [AZT, Azidothymidine, reference compound] | 58% | 92% |  |  | 
2 | O=c1c(-c2nnc(SCc3ccccc3F)o2)c[nH]c2c(-c3ccccc3)cccc12 [Compound 3] |  |  | 50 µM | > 100 µM | 
3 | CSc1nnc(-c2ccc(N=Nc3c(O)c4ccccc4oc3=O)cc2)o1 [Compound 11a, 4-Hydroxy-3-((4-(5-(methylthio)-1,3,4-oxadiazol-2-yl)phenyl)diazenyl)-2H-chromen-2-one] | 79% | 51% |  |  | 211.6 to 212.1 °C
4 | CCSc1nnc(-c2ccc(N=Nc3c(O)c4ccccc4oc3=O)cc2)o1 [Compound 11b, 3-((4-(5-(Ethylthio)-1,3,4-oxadiazol-2-yl)phenyl)diazenyl)-4-hydroxy-2H-chromen-2-one] | 5% | 100% |  |  | 290 to 291 °C (dec.)
5 | CCCSc1nnc(-c2ccc(N=Nc3c(O)c4ccccc4oc3=O)cc2)o1 [Compound 11c, 4-Hydroxy-3-((4-(5-(propylthio)-1,3,4-oxadiazol-2-yl)phenyl)diazenyl)-2H-chromen-2-one] | 32% | 93% |  |  | 205.5 to 206.8 °C
6 | O=c1oc2ccccc2c(O)c1N=Nc1ccc(-c2nnc(SCc3ccccc3)o2)cc1 [Compound 11d, 3-((4-(5-(Benzylthio)-1,3,4-oxadiazol-2-yl)phenyl)diazenyl)-4-hydroxy-2H-chromen-2-one] | 6% | 94% |  |  | 243.1 to 243.8 °C
7 | O=c1oc2ccccc2c(O)c1N=Nc1ccc(-c2nnc(SCc3ccccc3Cl)o2)cc1 [Compound 11e, 3-((4-(5-(2-Chlorobenzylthio)-1,3,4-oxadiazol-2-yl)phenyl)diazenyl)-4-hydroxy-2H-chromen-2-one] | 33% | 75% |  |  | 236.8 to 237.5 °C
8 | O=c1oc2ccccc2c(O)c1N=Nc1ccc(-c2nnc(SCc3ccc(Cl)cc3)o2)cc1 [Compound 11f, 3-((4-(5-(4-Chlorobenzylthio)-1,3,4-oxadiazol-2-yl)phenyl)diazenyl)-4-hydroxy-2H-chromen-2-one] | 52% | 100% |  |  | 260.8 to 263.8 °C
9 | O=c1oc2ccccc2c(O)c1N=Nc1ccc(-c2nnc(SCc3ccccc3F)o2)cc1 [Compound 11g, 3-((4-(5-(2-Fluorobenzylthio)-1,3,4-oxadiazol-2-yl)phenyl)diazenyl)-4-hydroxy-2H-chromen-2-one] | 22% | 74% |  |  | 240.1 to 242.2 °C
10 | O=c1oc2ccccc2c(O)c1N=Nc1ccc(-c2nnc(SCc3ccc(F)cc3)o2)cc1 [Compound 11h, 3-((4-(5-(4-Fluorobenzylthio)-1,3,4-oxadiazol-2-yl)phenyl)diazenyl)-4-hydroxy-2H-chromen-2-one] | 25% | 100% |  |  | 246.6 to 251.6 °C
